Experimental data: PMC9455338, “Design, synthesis, and biological evaluation of potent FAK-degrading PROTACs” (Journal of Enzyme Inhibition and Medicinal Chemistry, 2022)

Columns and labels:
FAK [1] = target: T1, FAK (Homo sapiens, UniProt Q05397); test: biochemical; design: HTRF KinEASE-TK kinase assay with purified FAK, inhibition of substrate phosphorylation; conditions: for inhibition at 0.1 µM: read-out: FAK inhibition (%)^a / 0.1 μM; for inhibition at 0.5 µM: read-out: FAK inhibition (%)^a / 0.5 μM
T1 construct: gene PTK2
Experimental: The FAK kinase assay was performed using the HTRF® KinEASE™-TK kit (Cisbio Bioassays, France) in white 384-well small volume plates with a total working volume of 20 μL. Purified FAK enzyme was purchased from Carna Biosciences (Japan). Compounds were diluted step-by-step from a concentrated stock of 8 mM in 100% DMSO and with serial kinase reaction buffer dilutions. The IC50 measurements were performed in replicates. […] The assay plates were incubated at 30 °C for 50 min and reactions were terminated by adding 10 μL of mix 2 (Sa-XL665 + TK-Antibody-Cryptate). After a final incubation (60 min at room temperature), HTRF signals were obtained by reading plates using an Infinite® F500 microplate reader (Tecan, Switzerland). […] For IC50 measurements, values were normalised and fitted with Graphpad prism 8.3.0.

FAK [2] = target: T1, FAK; test: HTRF KinEASE-TK kinase assay, purified FAK (Carna)
FAK [3] = target: T1, FAK; test: HTRF kinase assay, % inhibition at […]; assay type: biochemical

T1 sequence (Q05397 2-1052): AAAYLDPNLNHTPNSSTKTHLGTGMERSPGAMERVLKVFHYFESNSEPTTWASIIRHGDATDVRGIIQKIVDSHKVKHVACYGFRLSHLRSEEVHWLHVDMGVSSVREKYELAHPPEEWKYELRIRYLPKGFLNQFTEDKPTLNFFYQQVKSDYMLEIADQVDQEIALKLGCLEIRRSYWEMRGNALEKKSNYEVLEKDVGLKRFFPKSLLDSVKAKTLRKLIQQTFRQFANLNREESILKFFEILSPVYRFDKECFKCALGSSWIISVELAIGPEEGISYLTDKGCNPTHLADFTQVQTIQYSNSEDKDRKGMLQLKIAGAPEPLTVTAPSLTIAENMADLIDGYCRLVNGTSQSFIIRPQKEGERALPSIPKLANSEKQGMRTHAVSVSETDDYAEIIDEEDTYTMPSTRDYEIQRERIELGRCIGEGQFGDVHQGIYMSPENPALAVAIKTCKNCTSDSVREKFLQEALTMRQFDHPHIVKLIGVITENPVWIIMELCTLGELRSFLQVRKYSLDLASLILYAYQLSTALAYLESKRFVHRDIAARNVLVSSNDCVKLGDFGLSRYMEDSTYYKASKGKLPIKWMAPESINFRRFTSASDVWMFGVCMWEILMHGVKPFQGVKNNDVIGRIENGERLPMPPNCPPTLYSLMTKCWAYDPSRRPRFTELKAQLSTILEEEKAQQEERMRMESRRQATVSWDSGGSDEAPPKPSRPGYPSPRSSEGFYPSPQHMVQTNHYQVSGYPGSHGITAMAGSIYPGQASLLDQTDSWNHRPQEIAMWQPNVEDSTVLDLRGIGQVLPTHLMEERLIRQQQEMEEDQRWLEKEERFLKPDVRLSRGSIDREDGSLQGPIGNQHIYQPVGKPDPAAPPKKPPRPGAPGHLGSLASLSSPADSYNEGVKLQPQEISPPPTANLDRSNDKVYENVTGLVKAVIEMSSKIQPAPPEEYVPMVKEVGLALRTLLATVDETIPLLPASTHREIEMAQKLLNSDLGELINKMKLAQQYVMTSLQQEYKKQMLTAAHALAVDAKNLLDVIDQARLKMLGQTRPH

| Structure (SMILES) | inhibition at 0.1 µM (FAK [1]) [%] | inhibition at 0.5 µM (FAK [1]) [%] | IC50 (FAK [2]) [nM] | inhibition at 0.1 µM (FAK [3]) [%] |
| --- | --- | --- | --- | --- |
| CN(c1ccccc1CNc1nc(Nc2ccc(N3CCN(CCOCCOCCNC(=O)CNc4cccc5c4C(=O)N(C4CCC(=O)NC4=O)C5=O)CC3)cc2)ncc1C(F)(F)F)S(C)(=O)=O (stereo not shown) [A1, 2-{[2–(2,6-Dioxopiperidin-3-yl)-1,3-dioxoisoindolin-4-yl]amino}-N-(2-{2-[2–(4-{4-[(4-{[2-(N-methylmethylsulfonamido)benzyl]amino}-5-(trifluoromethyl)pyrimidin-2-yl)amino]phenyl}piperazin-1-yl)ethoxy]ethoxy}ethyl)acetamide] | 94.9 | 98 | 22.3 |  |
| CN(c1ccccc1CNc1nc(Nc2ccc(N3CCN(CCCOCCC(=O)NCCNc4cccc5c4C(=O)N(C4CCC(=O)NC4=O)C5=O)CC3)cc2)ncc1C(F)(F)F)S(C)(=O)=O (stereo not shown) [A2, N-(2-{[2–(2,6-dioxopiperidin-3-yl)-1,3-dioxoisoindolin-4-yl]amino}ethyl)-3-[3–(4-{4-[(4-{[2-(N-methylmethylsulfonamido)benzyl]amino}-5-(trifluoromethyl)pyrimidin-2-yl)amino]phenyl}piperazin-1-yl)propoxy]propanamide] |  | 98.8 |  | 89 |
| CN(c1ccccc1CNc1nc(Nc2ccc(N3CCN(CCCCC(=O)Nc4cccc5c4C(=O)N(C4CCC(=O)NC4=O)C5=O)CC3)cc2)ncc1C(F)(F)F)S(C)(=O)=O (stereo not shown) [A5] |  | 98 |  | 91.2 |
| CN(c1ccccc1CNc1nc(Nc2ccc(N3CCN(CCCCC(=O)NCCNc4cccc5c4C(=O)N(C4CCC(=O)NC4=O)C5=O)CC3)cc2)ncc1C(F)(F)F)S(C)(=O)=O (stereo not shown) [A11, N-(2-{[2–(2,6-Dioxopiperidin-3-yl)-1,3-dioxoisoindolin-4-yl]amino}ethyl)-5–(4 –{4-[(4-{[2-(N-Methylmethylsulfonamido)benzyl]amino}-5-(trifluoromethyl)pyrimidin-2-yl)amino]phenyl}piperazine-1-yl)pentanamide] |  | 98.6 |  | 93.5 |
| CN(c1ccccc1CNc1nc(Nc2ccc(N3CCN(CCCCCC(=O)NCCNc4cccc5c4C(=O)N(C4CCC(=O)NC4=O)C5=O)CC3)cc2)ncc1C(F)(F)F)S(C)(=O)=O (stereo not shown) [A12, N-(2-{[2–(2,6-Dioxopiperidin-3-yl)-1,3-dioxoisoindolin-4-yl]amino}ethyl)-6–(4-{4-[(4-{[2-(N-methylmethylsulfonamido)benzyl]amino}-5-(trifluoromethyl)pyrimidin-2-yl)amino]phenyl}piperazine-1-yl)hexanamide] |  | 98 |  | 86.1 |
| CN(c1ccccc1CNc1nc(Nc2ccc(N3CCN(CCCCCCC(=O)NCCNc4cccc5c4C(=O)N(C4CCC(=O)NC4=O)C5=O)CC3)cc2)ncc1C(F)(F)F)S(C)(=O)=O (stereo not shown) [A13, N-(2-{[2–(2,6-Dioxopiperidin-3-yl)-1,3-dioxoisoindolin-4-yl]amino}ethyl)-7–(4 -{4-[(4-{[2-(N-methylmethylsulfonamido)benzyl]amino}-5-(trifluoromethyl)pyrimidin-2-yl)amino]phenyl}piperazine-1-yl)heptamide] | 84.4 | 96.9 | 26.4 |  |

The next lines start with the values.

| inhibition at 0.1 µM (FAK [1]) [%] | inhibition at 0.5 µM (FAK [1]) [%] | IC50 (FAK [2]) [nM] | inhibition at 0.1 µM (FAK [3]) [%] | Structure (SMILES) |
| --- | --- | --- | --- | --- |
| 88.2 | 96.8 | 24.4 |  | CN(c1ccccc1CNc1nc(Nc2ccc(N3CCN(CCCCCC(=O)Nc4cccc5c4C(=O)N(C4CCC(=O)NC4=O)C5=O)CC3)cc2)ncc1C(F)(F)F)S(C)(=O)=O (stereo not shown) [A6, N-(2–(2,6-Dioxopiperidin-3-yl)-1,3-dioxoisoindol-4-yl)-6–(4-{4-[(4-{[2-(N-Methylmethylsulfonamido)benzyl]amino}-5-(trifluoromethyl)pyrimidin-2-yl)amino]phenyl}piperazin-1-yl)hexanamide] |
|  | 95.4 |  | 87.5 | CN(c1ccccc1CNc1nc(Nc2ccc(N3CCN(CCCCCCC(=O)Nc4cccc5c4C(=O)N(C4CCC(=O)NC4=O)C5=O)CC3)cc2)ncc1C(F)(F)F)S(C)(=O)=O (stereo not shown) [A7, N-[2–(2,6-Dioxopiperidin-3-yl)-1,3-dioxoisoindol-4-yl]-7–(4-{4-[(4-{[2-(N-Methylmethylsulfonamido)benzyl]amino}-5-(trifluoromethyl)pyrimidin-2-yl)amino]phenyl}piperazin-1-yl)heptamide] |
